Source: US8163909B2, “Substituted hydroxyethyl amine compounds as beta-secretase modulators and methods of use” (Amgen Inc., priority 2007, dated 2012)
Like-named read-outs stand apart in the source and are kept apart here.

Assays:
[1] = molecular target: Beta Secretase enzyme (BACE) (Homo sapiens, UniProt P56817); assay: In vitro enzymatic BACE FRET (fluorescence resonance energy transfer) assay; assay type: biochemical;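 also: fluorescence read after 1 h with 50 nM quenched peptide substrate spanning the BACE cleavage site, in pH 4.2 acetate buffer containing 10% DMSO and nonionic detergent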
Beta Secretase enzyme (BACE), sequence (P56817 46-501): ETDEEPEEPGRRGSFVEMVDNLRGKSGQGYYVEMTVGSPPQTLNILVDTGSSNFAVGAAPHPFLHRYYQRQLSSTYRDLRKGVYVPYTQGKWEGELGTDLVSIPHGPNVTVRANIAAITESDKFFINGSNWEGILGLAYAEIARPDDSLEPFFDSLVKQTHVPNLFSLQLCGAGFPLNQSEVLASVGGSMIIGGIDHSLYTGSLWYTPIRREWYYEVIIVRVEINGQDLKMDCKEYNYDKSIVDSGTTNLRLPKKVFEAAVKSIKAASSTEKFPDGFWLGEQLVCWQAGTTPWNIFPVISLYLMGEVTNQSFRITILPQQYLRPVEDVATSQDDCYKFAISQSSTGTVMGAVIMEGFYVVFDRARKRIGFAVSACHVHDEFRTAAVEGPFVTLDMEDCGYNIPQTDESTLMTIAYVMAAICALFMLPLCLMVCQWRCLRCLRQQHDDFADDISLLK

[2] = molecular target: CYP3A4 (CYP3A) (Homo sapiens, UniProt P08684); assay: in vitro; details: microsomes, pH 7.4;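 also: inhibition of CYP3A-mediated 1-hydroxymidazolam formation after 10 min incubation with NADPH, quantified by HPLC MS relative to metabolite produced without test compound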
CYP3A4 (CYP3A), sequence (P08684 2-503): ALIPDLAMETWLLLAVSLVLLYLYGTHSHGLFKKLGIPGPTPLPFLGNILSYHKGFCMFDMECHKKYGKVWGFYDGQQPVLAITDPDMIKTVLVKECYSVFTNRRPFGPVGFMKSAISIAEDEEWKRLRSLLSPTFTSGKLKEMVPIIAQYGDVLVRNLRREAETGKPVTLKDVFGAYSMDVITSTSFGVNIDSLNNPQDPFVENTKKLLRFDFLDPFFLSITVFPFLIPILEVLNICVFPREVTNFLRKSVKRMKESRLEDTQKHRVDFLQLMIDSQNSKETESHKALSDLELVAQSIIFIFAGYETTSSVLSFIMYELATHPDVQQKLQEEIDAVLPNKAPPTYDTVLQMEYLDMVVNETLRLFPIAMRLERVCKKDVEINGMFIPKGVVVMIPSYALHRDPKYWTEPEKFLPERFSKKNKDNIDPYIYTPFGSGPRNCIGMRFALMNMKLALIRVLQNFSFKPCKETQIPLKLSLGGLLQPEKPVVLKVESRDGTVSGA

[3] = Microsomal stability assay, human liver microsomes;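 also: pooled human liver microsomes at 0.25 mg/mL with 1 µM compound and NADPH at 37 °C, pH 7.4, for 30 min, unchanged parent quantified by LC-MS/MS against the 0 min sample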
[4] = test system: Aβ40 in conditioned medium of cells stably expressing Amyloid Precursor Protein (APP); assay: In vitro BACE cell-based assay (Aβ40 in conditioned medium, sandwich ELISA); details: Homo sapiens;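 also: compounds added as a dilution series, secreted peptide quantified by europium time-resolved fluorescence readout, potency fitted from percent of control versus compound concentration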
[5] = Microsomal stability assay, rat liver microsomes;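 also: rat liver microsomes (0.25 mg/mL) with about 1 µM compound plus 1 mM NADPH, pH 7.4, 37 °C for 30 min, parent left measured by LC-MS/MS against 0 min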
[6] = molecular target: CYP2D6 (Homo sapiens, UniProt P10635); assay: CYP2D6 inhibition assay (bufuralol, pooled human liver microsomes)
CYP2D6, sequence (P10635 whole entry): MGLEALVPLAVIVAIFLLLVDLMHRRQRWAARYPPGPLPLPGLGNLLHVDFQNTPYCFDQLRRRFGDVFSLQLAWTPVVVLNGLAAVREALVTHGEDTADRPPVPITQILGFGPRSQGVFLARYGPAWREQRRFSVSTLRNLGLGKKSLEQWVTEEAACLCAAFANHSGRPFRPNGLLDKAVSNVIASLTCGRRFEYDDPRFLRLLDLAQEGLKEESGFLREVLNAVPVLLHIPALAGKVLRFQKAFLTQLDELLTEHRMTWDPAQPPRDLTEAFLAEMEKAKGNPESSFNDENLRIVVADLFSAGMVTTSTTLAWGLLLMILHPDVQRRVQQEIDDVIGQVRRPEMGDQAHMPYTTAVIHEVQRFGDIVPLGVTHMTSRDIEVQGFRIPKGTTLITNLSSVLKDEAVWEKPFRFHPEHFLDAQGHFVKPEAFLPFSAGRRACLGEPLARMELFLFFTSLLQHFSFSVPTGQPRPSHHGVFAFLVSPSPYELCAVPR

[7] = read-out: BACE1 FRET assay (IC50)
[8] = HEK293, HEK cells, read-out: HEK cell assay (IC50)
[9] = BACE enzyme assay, read-out: BACE1 FRET assay
[10] = HEK293, HEK cells, read-out: HEK cell assay
[11] = 2D6 IC50 (uM), CYP enzyme inhibition
[12] = BACE enzyme assay IC50, read-out: BACE1 FRET assay
[13] = HEK293, HEK cell-based assay IC50, read-out: HEK cell assay
[14] = 2D6 IC50 (uM), CYP2D6 inhibition
[15] = BACE enzyme assay, IC50's in uM, read-out: BACE1 FRET assay
[16] = HEK293, HEK cell-based assay, IC50's in uM, read-out: HEK cell assay
[17] = HEK293, cell-based assay, HEK cells, IC50's in uM, read-out: HEK cell assay
[18] = 2D6 IC50, CYP enzyme inhibition

SMILES | IC50 [2] [nM] | HLM ([3]; human liver microsomes) [µL/min/mg] | RLM ([5]; rat liver microsomes) [µL/min/mg] | HLM ([3]; human liver microsomal data) [µL/min/mg] | RLM ([5]; rat liver microsomal data) [µL/min/mg] | IC50 [6, 11] [µM] | IC50 [1, 15] [µM] | also measured
CC(=O)N[C@@H](Cc1ccc(F)c(-c2cccnc2)c1)[C@H](O)CN[C@H]1CC2(CCC2)Oc2ccc(CC(C)(C)C)cc21 [compound 648] | 100 | 551 | 560 | – | – | – | – | IC50 [1, 7]: 0.008 µM; IC50 [4, 8]: 0.045 µM; IC50 ([6]; 2D6 IC50, CYP2D6 inhibition): 0.4 µM
CO[C@@H](C)C(=O)N[C@@H](Cc1ccc2c(c1)OCO2)[C@H](O)CN[C@H]1CC2(CCC2)Oc2ccc(C[C@@H](C)F)cc21 [compound 499] | 300 | – | – | 156 | 213 | 0.7 | – | IC50 [1, 9]: 1.36 µM; IC50 [4, 10]: 0.473 µM
CO[C@H](C)C(=O)N[C@@H](Cc1ccc2c(c1)OCO2)[C@H](O)CN[C@H]1CC2(CCC2)Oc2ncc(CC(C)(C)F)cc21 [compound 741] | ≤ 30 | 25 | 76 | – | – | – | – | IC50 [1, 12]: 0.352 µM; IC50 [4, 13]: 0.329 µM; IC50 [6, 14]: 5 µM
CO[C@H](C)C(=O)N[C@@H](Cc1ccc2c(c1)OCO2)[C@H](O)CN[C@H]1CC(C)(C)Oc2ncc(CC(C)(C)C)cc21 [compound 674] | 100 | 26 | 128 | – | – | – | – | IC50 [1, 12]: 0.033 µM; IC50 [4, 13]: 0.037 µM; IC50 [6, 14]: 10.5 µM
C#Cc1cc2c(c(-n3ccnc3)c1)OC1(CCC1)C[C@@H]2NC[C@@H](O)[C@H](Cc1cc(F)cc(F)c1)NC(=O)COC [compound 689] | ≤ 30 | 18.5 | 44.5 | – | – | – | – | IC50 [1, 12]: 0.038 µM; IC50 [4, 13]: 0.027 µM; IC50 [6, 14]: 0.2 µM
CC(=O)N[C@@H](Cc1ccc2c(c1)OCO2)[C@H](O)CN[C@H]1CC(C)(C)Oc2ncc(CC(C)(C)C)cc21 [compound 679] | 200 | 24 | 138 | – | – | – | – | IC50 [1, 12]: 0.019 µM; IC50 [4, 13]: 0.012 µM; IC50 [6, 14]: 5.7 µM
CO[C@H](C)C(=O)N[C@@H](Cc1cccc(F)c1)[C@H](O)CN[C@H]1CC2(CCC2)Oc2c1cc(CC(C)(C)C)cc2-n1ccnc1 [compound 522] | 100 | – | – | 43 | 141 | 3.1 | – | IC50 [1, 9]: 0.044 µM; IC50 [4, 10]: 0.013 µM
COCC(=O)N[C@@H](Cc1cc(F)cc(F)c1)[C@H](O)CN[C@H]1CC2(CCC2)Oc2c(-c3cccnc3)cc(CC(C)(C)C)cc21 [compound 489] | 400 | – | – | 399 | 775 | 3.9 | – | IC50 [1, 9]: 0.007 µM; IC50 [4, 10]: 0.02 µM
COCC(=O)N[C@@H](Cc1ccc2c(c1)OCO2)[C@H](O)CN[C@H]1CC2(CCC2)Oc2c1cc(CC(C)C)nc2Cl [compound 656] | 100 | 131 | 180 | – | – | – | – | IC50 [1, 7]: 0.051 µM; IC50 [4, 8]: 0.774 µM; IC50 ([6]; 2D6 IC50, CYP2D6 inhibition): 5.3 µM
Cc1nc(CN2CCO[C@@H](C(=O)N[C@@H](Cc3ccc(F)cc3)[C@H](O)CN[C@H]3CC4(CCC4)Oc4ncc(CC(C)(C)C)cc43)C2)cs1 [compound 755] | 300 | – | – | 522 | 191 | 3.3 | 0.012 | IC50 [4, 16]: 0.007 µM
Cc1ccc(CN2CCO[C@@H](C(=O)N[C@@H](Cc3ccc(F)cc3)[C@H](O)CN[C@H]3CC4(CCC4)Oc4ncc(CC(C)(C)C)cc43)C2)cc1 [compound 709] | 300 | 614 | 375 | – | – | – | – | IC50 [1, 12]: 0.028 µM; IC50 [4, 13]: 0.038 µM; IC50 [6, 14]: 3.7 µM
CC(=S)N[C@@H](Cc1cccc(-c2nccs2)c1)[C@H](O)CN[C@H]1CC2(CCC2)Oc2ncc(CC(C)(C)C)cc21 [compound 793] | 100 | – | – | 99 | 60 | 0.4 | 0.03 | IC50 [4, 16]: 0.067 µM
COCC(=O)N[C@@H](Cc1cccc(-c2nccs2)c1)[C@H](O)CN[C@H]1CC2(CCC2)Oc2ncc([C@@H]3CC3(C)C)cc21 [compound 857, N-((1S,2R)-3-(((4′S)-6′-((1R)-2,2-dimethylcyclopropyl)-3′,4′-dihydrospiro[cyclobutane-1,2′-pyrano[2,3-b]pyridin]-4′-yl)amino)-2-hydroxy-1-(3-(1,3-thiazol-2-yl)benzyl)propyl)-2-methoxyacetamide] | 100 | – | – | 51 | 46 | – | 0.004 | IC50 [4, 17]: 0.008 µM; IC50 [6, 18]: 0.35 µM
CO[C@H](C)C(=O)N[C@@H](Cc1cccc(-c2nccs2)c1F)[C@H](O)CN[C@H]1CC2(CCC2)Oc2ncc(CC(C)(C)C)cc21 [compound 909] | 100 | – | – | 76 | 127 | – | 0.157 | IC50 [4, 17]: 0.052 µM; IC50 [6, 18]: 0.9 µM
CO[C@H](C)C(=O)N[C@@H](Cc1ccc(F)c(-c2nccs2)c1)[C@H](O)CN[C@H]1CC2(CCC2)Oc2ncc(CC(C)(C)F)cc21 [compound 760] | 300 | – | – | 26 | 31 | 0.8 | 0.031 | IC50 [4, 16]: 0.1 µM
COCC(=O)N[C@@H](Cc1cc(F)cc(F)c1)[C@H](O)CN[C@H]1CC2(CCC2)Oc2c(-c3ccccc3F)cc(CC(C)(C)C)cc21 [compound 487] | 1600 | – | – | 394 | 387 | 21.4 | – | IC50 [1, 9]: 0.015 µM; IC50 [4, 10]: 0.118 µM
CC(=O)N[C@@H](Cc1cc(F)cc(-c2cccnc2)c1)[C@H](O)CN[C@H]1CC2(CCC2)Oc2ccc(CC(C)(C)C)cc21 [compound 649] | 300 | 706 | 482 | – | – | – | – | IC50 [1, 7]: 0.007 µM; IC50 [4, 8]: 0.03 µM; IC50 ([6]; 2D6 IC50, CYP2D6 inhibition): 0.5 µM
COCC(=O)N[C@@H](Cc1cc(F)cc(F)c1)[C@H](O)CN[C@H]1CC2(CCC2)Oc2c1cc(CC(C)(C)C)cc2-n1ccnc1 [compound 475] | 50 | – | – | 26 | 128.5 | – | – | IC50 ([1]; Table 2, read-out: BACE1 FRET assay): 0.018 µM; IC50 ([4]; HEK293, Table 2, HEK cells, read-out: HEK cell assay): 0.008 µM; IC50 [6, 18]: 1.75 µM
COCC(=O)N[C@@H](Cc1cccc(F)c1)[C@H](O)CN[C@H]1CC2(CCC2)Oc2c1cc(CC(C)(C)F)cc2-n1ccnc1 [compound 588] | 100 | 25 | 74 | – | – | – | – | IC50 [1, 7]: 0.027 µM; IC50 [4, 8]: 0.006 µM; IC50 ([6]; 2D6 IC50, CYP2D6 inhibition): 0.6 µM
CO[C@H](C)C(=O)N[C@@H](Cc1ccc2c(c1)OCO2)[C@H](O)CN[C@H]1CC2(CCC2)Oc2ccc(C[C@@H](C)F)cc21 [compound 556] | 300 | – | – | 211 | 353 | 1 | – | IC50 [1, 9]: 0.718 µM; IC50 [4, 10]: 0.446 µM
CC(C)(C)Cc1cnc2c(c1)[C@@H](NC[C@@H](O)[C@H](Cc1ccc3c(c1)OCO3)NC(=O)C1CCS(=O)(=O)C1)CC1(CCC1)O2 (stereo partly drawn) [compound 779] | 100 | – | – | 36 | 66 | 3.9 | 0.057 | IC50 [4, 16]: 0.075 µM
CC(=O)N[C@@H](Cc1cccc(-c2cncs2)c1)[C@H](O)CN[C@H]1CC2(CCC2)Oc2ncc(CC(C)(C)C)cc21 [compound 658, N-((1S,2R)-3-(((4′S)-6′-(2,2-dimethylpropyl)-3′,4′-dihydrospiro[cyclobutane-1,2′-pyrano[2,3-b]pyridin]-4′-yl)amino)-2-hydroxy-1-(3-(1,3-thiazol-5-yl)benzyl)propyl)acetamide] | 100 | 130 | 120 | – | – | – | – | IC50 [1, 7]: 0.006 µM; IC50 [4, 8]: 0.01 µM; IC50 ([6]; 2D6 IC50, CYP2D6 inhibition): 0.3 µM
COCC(=O)N[C@@H](Cc1cc(F)cc(F)c1)[C@H](O)CN[C@H]1CC2(CCC2)Oc2c(-c3ccncc3)cc(C3CC3)cc21 [compound 783] | 300 | – | – | 73 | 107 | 0.3 | 0.031 | IC50 [4, 16]: 0.029 µM
COC(OC)C(=O)N[C@@H](Cc1cccc(C#N)c1)[C@H](O)CN[C@H]1CC2(CCC2)Oc2ncc(CC(C)(C)C)cc21 [compound 798] | 500 | – | – | 468 | 423 | 4.7 | 0.006 | IC50 [4, 16]: 0.005 µM
COCC(=O)N[C@@H](Cc1cccc(F)c1)[C@H](O)CN[C@H]1CC2(CCC2)Oc2c1cc(CC(C)(C)C)nc2-c1ccncc1 [compound 531] | 200 | – | – | 40 | 159 | 1.3 | – | IC50 [1, 9]: 0.013 µM; IC50 [4, 10]: 0.029 µM
CCCc1cnc2c(c1)[C@@H](NC[C@@H](O)[C@H](Cc1cc(F)cc(-c3nccs3)c1)NC(=O)[C@@H](C)OC)CC1(CCC1)O2 [compound 853] | 400 | – | – | 93 | 101 | – | 0.043 | IC50 [4, 17]: 0.075 µM; IC50 [6, 18]: 0.7 µM
